Measured values: patent publication US20250230193A1, “CYCLIC COMPOUND HAVING SELECTIVE KRAS INHIBITORY EFFECT ON HRAS AND NRAS” (CHUGAI SEIYAKU KABUSHIKI KAISHA, priority 2022, published 2025)
Where a SMILES comes first, the peptide text is derived from it. Bridges are numbered along the chain shown (N, C = ends). [ ]: non-standard residue; d: D form. hPhe(3-Cl-4-CF3) = N[C@@H](CCc1ccc(C(F)(F)F)c(Cl)c1)C(=O)O; NPrPhe(4-CF3) = CCCN[C@@H](Cc1ccc(C(F)(F)F)cc1)C(=O)O; NMeGly(cPent) = CN[C@H](C(=O)O)C1CCCC1; Pro(4,4-F2) = O=C(O)[C@@H]1CC(F)(F)CN1; NMeL = CN[C@@H](CC(C)C)C(=O)O; Ac4c = NC1(C(=O)O)CCC1; NEtG = CCNCC(=O)O; Sar = CNCC(=O)O

How the values were obtained:
[1] = molecular target: GDP-bound HRAS wild-type protein (Homo sapiens, UniProt P01112); assay: Binding to HRAS by surface plasmon resonance (SPR), Single Cycle Kinetics; settings: for HRAS/KRAS (ratio of KD value with respect to HRAS to KD value with respect to KRAS) / HRAS/KRAS (ratio of KD value for HRAS to KD value for KRAS): GDP-bound HRAS wild-type vs GDP-bound KRAS wild-type
GDP-bound HRAS wild-type protein, sequence (P01112 whole entry): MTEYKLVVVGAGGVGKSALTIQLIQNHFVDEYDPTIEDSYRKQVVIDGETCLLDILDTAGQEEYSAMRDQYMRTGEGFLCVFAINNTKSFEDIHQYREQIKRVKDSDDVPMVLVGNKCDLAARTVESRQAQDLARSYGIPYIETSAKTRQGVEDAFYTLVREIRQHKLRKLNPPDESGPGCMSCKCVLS

[2] = molecular target: GDP-bound NRAS wild-type protein (Homo sapiens, UniProt P01111); assay: Binding to NRAS by surface plasmon resonance (SPR), Single Cycle Kinetics; settings: for NRAS/KRAS (ratio of KD value with respect to NRAS to KD value with respect to KRAS) / NRAS/KRAS (ratio of KD value for NRAS to KD value for KRAS): GDP-bound NRAS wild-type vs GDP-bound KRAS wild-type
GDP-bound NRAS wild-type protein, sequence (P01111 whole entry): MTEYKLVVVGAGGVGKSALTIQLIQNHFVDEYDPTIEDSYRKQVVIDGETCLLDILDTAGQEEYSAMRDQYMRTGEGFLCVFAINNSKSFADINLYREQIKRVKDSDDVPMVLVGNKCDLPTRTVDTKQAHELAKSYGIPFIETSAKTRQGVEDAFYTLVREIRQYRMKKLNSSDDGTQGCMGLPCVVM

SMILES: CCO[C@@H]1C[C@H]2C(=O)NC3(CCC3)C(=O)N(C)[C@@H](C3CCCC3)C(=O)N(C)[C@H](C(=O)N(C)C)CC(=O)N(C)[C@@H](CC)C(=O)N[C@@H]([C@@H](C)CC)C(=O)N(C)CC(=O)N(C)[C@H]3CCCCCN(C3=O)[C@@H](Cc3ccc4ccsc4c3)C(=O)N(C)CC(=O)N[C@@H](CCc3cc(F)c(C(F)(F)F)c(F)c3)C(=O)N2C1 [PP0910]
- HRAS/KRAS (ratio of KD value with respect to HRAS to KD value with respect to KRAS) ([1]; KD ratio, SPR): B (a compound having 3 or more and less than 10 is denoted as B)
- NRAS/KRAS (ratio of KD value with respect to NRAS to KD value with respect to KRAS) ([2]; KD ratio, SPR): B (a compound having 3 or more and less than 10 is denoted as B)

SMILES: CCO[C@@H]1C[C@H]2C(=O)NC3(CCC3)C(=O)N(C)[C@@H](C3CCCC3)C(=O)N(C)[C@H](C(=O)N(C)CCOC)CC(=O)N(C)[C@@H](CC)C(=O)N[C@@H]([C@@H](C)CC)C(=O)N(C)CC(=O)N(C)[C@H]3C/C=C\CCN(C3=O)[C@@H](Cc3ccc(C(F)(F)F)cc3)C(=O)N(C)CC(=O)N[C@@H](CCc3cc(F)c(C(F)(F)F)c(F)c3)C(=O)N2C1 [PP1316]
- HRAS/KRAS (ratio of KD value for GDP-bound HRAS wild-type protein to KD value for KRAS) ([1]; SPR, KD ratio class): A (a compound having 10 or more and less than 20 is denoted as A)
- NRAS/KRAS (ratio of KD value for GDP-bound NRAS wild-type protein to KD value for KRAS) ([2]; SPR, KD ratio class): A (a compound having 10 or more and less than 20 is denoted as A)

SMILES: CCCN1C(=O)CN(C)C(=O)CN(CC)C(=O)[C@H]([C@@H](C)CC)NC(=O)[C@H](CC(C)C)N(C)C(=O)C[C@@H](C(=O)N(C)C)NC(=O)[C@H](C2CCCC2)N(C)C(=O)C2(CCC2)NC(=O)[C@@H]2CC(F)(F)CN2C(=O)[C@H](CCc2ccc(C(F)(F)F)c(Cl)c2)NC(=O)CN(C)C(=O)[C@@H]1Cc1ccc(C(F)(F)F)cc1 [PP0370] ([NMeL]I[NEtG][Sar][NPrPhe(4-CF3)][Sar][hPhe(3-Cl-4-CF3)][Pro(4,4-F2)][Ac4c][NMeGly(cPent)]D-NMe2; lactam N-11)
- HRAS/KRAS (ratio of KD for GDP-bound HRAS wild-type to KD for KRAS) ([1]; KD ratio HRAS/KRAS, SPR): C (A compound having a KD ratio of 0.1 or more and less than 3 is denoted as C)
- NRAS/KRAS (ratio of KD for GDP-bound NRAS wild-type to KD for KRAS) ([2]; KD ratio NRAS/KRAS, SPR): B (a compound having 3 or more and less than 10 is denoted as B)

SMILES: C#CC[C@H]1C(=O)N[C@@H]([C@@H](C)CC)C(=O)N(C)CC(=O)N(C)[C@H]2C/C=C\CCN(C2=O)[C@@H](Cc2ccc(C(F)(F)F)cc2)C(=O)N(C)CC(=O)N[C@@H](CCc2ccc(C(F)(F)F)c(Cl)c2)C(=O)N2C[C@H](OCC)C[C@H]2C(=O)NC2(CC(C)(C)C2)C(=O)N(C)[C@@H](C2CCCC2)C(=O)N(C)[C@H](C(=O)N(C)CC)CC(=O)N1C [PP2844]
- HRAS/KRAS (ratio of KD value with respect to GDP-bound HRAS wild-type protein to KD value with respect to KRAS) ([1]; KD ratio HRAS/KRAS, class symbols): A (a compound having 10 or more and less than 20 is denoted as A)
- NRAS/KRAS (ratio of KD value with respect to GDP-bound NRAS wild-type protein to KD value with respect to KRAS) ([2]; KD ratio NRAS/KRAS, class symbols): A (a compound having 10 or more and less than 20 is denoted as A)

SMILES: CCO[C@@H]1C[C@H]2C(=O)NC3(CCC3)C(=O)N(C)[C@@H](C3CCCC3)C(=O)N(C)[C@H](C(=O)N(C)C)CC(=O)N(C)[C@@H](CC)C(=O)N[C@@H]([C@@H](C)CC)C(=O)N(C)CC(=O)N(C)[C@H]3C/C=C\CCN(C3=O)[C@@H](Cc3ccc(C(F)(F)F)cc3)C(=O)N(C)CC(=O)N[C@@H](CCc3cc(C)c(Cl)c(C)c3)C(=O)N2C1 [PP1821]
- HRAS/KRAS (ratio of KD value for HRAS to KD value for KRAS) ([1]; KD ratio, SPR): A (a compound having 10 or more and less than 20 is denoted as A)
- NRAS/KRAS (ratio of KD value for NRAS to KD value for KRAS) ([2]; KD ratio, SPR): A (a compound having 10 or more and less than 20 is denoted as A)

SMILES: CCO[C@@H]1C[C@H]2C(=O)NC3(CC(F)(F)C3)C(=O)N(C)[C@@H](C(CC)CC)C(=O)N(C)[C@H](CC)CC(=O)N(C)[C@@H](CC3CC3)C(=O)N[C@@H]([C@@H](C)CC)C(=O)N(C)CC(=O)N(C)[C@H]3C/C=C\CCN(C3=O)[C@@H](Cc3ccc(C(F)(F)F)cc3)C(=O)N(C)CC(=O)N[C@@H](CCc3cc(F)c(C(F)(F)F)c(F)c3)C(=O)N2C1 [PP1632]
- HRAS/KRAS (ratio of KD value for HRAS to KD value for KRAS) ([1]; KD ratio, SPR): A (a compound having 10 or more and less than 20 is denoted as A)
- NRAS/KRAS (ratio of KD value for NRAS to KD value for KRAS) ([2]; KD ratio, SPR): A (a compound having 10 or more and less than 20 is denoted as A)

SMILES: CCCN(C)C(=O)[C@@H]1CC(=O)N(C)[C@@H](COC)C(=O)N[C@@H]([C@@H](C)CC)C(=O)N(C)CC(=O)N(C)[C@H]2C/C=C\CCN(C2=O)[C@@H](Cc2ccc(C(F)(F)F)cc2)C(=O)N(C)CC(=O)N[C@@H](CCc2cc(F)c(C(F)(F)F)c(F)c2)C(=O)N2C[C@H](F)C[C@H]2C(=O)NC2(CC(C)(C)C2)C(=O)N(C)[C@@H](C2CCCC2)C(=O)N1C [PP1696]
- HRAS/KRAS (ratio of KD value for HRAS to KD value for KRAS) ([1]; KD ratio, SPR): A (a compound having 10 or more and less than 20 is denoted as A)
- NRAS/KRAS (ratio of KD value for NRAS to KD value for KRAS) ([2]; KD ratio, SPR): AA (a compound having 20 or more is denoted as AA)

SMILES: CCC[C@H]1C(=O)N[C@@H]([C@@H](C)CC)C(=O)N(C)CC(=O)N(C)[C@H]2C/C=C\CCN(C2=O)[C@@H](Cc2ccc(C)cc2)C(=O)N(C)CC(=O)N[C@@H](CCc2ccc(C(F)(F)F)c(OC)c2)C(=O)N2C[C@H](OCC)C[C@H]2C(=O)NC2(CC(C)(C)C2)C(=O)N(C)[C@@H](CC(F)(F)F)C(=O)N(C)[C@H](C(=O)N(C)C)CC(=O)N1C [PP3007]
- HRAS/KRAS (ratio of KD value with respect to GDP-bound HRAS wild-type protein to KD value with respect to KRAS) ([1]; KD ratio HRAS/KRAS, SPR, GDP-bound wild-type proteins): A (a compound having 10 or more and less than 20 is denoted as A)
- NRAS/KRAS (ratio of KD value with respect to GDP-bound NRAS wild-type protein to KD value with respect to KRAS) ([2]; KD ratio NRAS/KRAS, SPR, GDP-bound wild-type proteins): A (a compound having 10 or more and less than 20 is denoted as A)

SMILES: CCC[C@@H]1C[C@H]2C(=O)NC3(CCC3)C(=O)N(C)[C@@H](C3CCCC3)C(=O)N(C)[C@H](C(=O)N(C)C)CC(=O)N(C)[C@@H](CCC)C(=O)N[C@@H]([C@@H](C)CC)C(=O)N(C)CC(=O)N(C)[C@H]3C/C=C\CCN(C3=O)[C@@H](Cc3ccc(C)cc3)C(=O)N(C)CC(=O)N[C@@H](CCc3ccc(C(F)(F)F)c(Cl)c3)C(=O)N2C1 [PP2238]
- HRAS/KRAS (ratio of KD value with respect to HRAS to KD value with respect to KRAS) ([1]; SPR): A (a compound having 10 or more and less than 20 is denoted as A)
- NRAS/KRAS (ratio of KD value with respect to NRAS to KD value with respect to KRAS) ([2]; SPR): A (a compound having 10 or more and less than 20 is denoted as A)

SMILES: CC[C@H](C)[C@@H]1NC(=O)[C@H](CC(C)C)N(C)C(=O)C[C@@H](C(=O)N2CCOCC2)N(C)C(=O)[C@H](C2CCCC2)N(C)C(=O)C2(CCC2)NC(=O)[C@@H]2[C@@H](OCC3CC3)CCN2C(=O)[C@H](CCc2cc(F)c(C(F)(F)F)c(F)c2)NC(=O)CN(C)C(=O)[C@H](Cc2ccc(C(F)(F)F)cc2)N2CCCCC[C@@H](C2=O)N(C)C(=O)CN(C)C1=O [PP1010]
- HRAS/KRAS (ratio of KD value with respect to HRAS to KD value with respect to KRAS) ([1]; KD ratio, SPR): B (a compound having 3 or more and less than 10 is denoted as B)
- NRAS/KRAS (ratio of KD value with respect to NRAS to KD value with respect to KRAS) ([2]; KD ratio, SPR): B (a compound having 3 or more and less than 10 is denoted as B)

SMILES: CC[C@H](C)[C@@H]1NC(=O)[C@H](CC(C)C)N(C)C(=O)C[C@@H](C(=O)N(C)C)N(C)C(=O)[C@H](C2CCCC2)N(C)C(=O)C2(CCC2)NC(=O)[C@@H]2CC(F)(F)CN2C(=O)[C@H](CCc2ccc(C(F)(F)F)c(Cl)c2)NC(=O)CN(C)C(=O)[C@H](Cc2ccc(F)cc2)N2CCCCC[C@@H](C2=O)N(C)C(=O)CN(C)C1=O [PP0973]
- HRAS/KRAS (ratio of KD value with respect to HRAS to KD value with respect to KRAS) ([1]; KD ratio, SPR): B (a compound having 3 or more and less than 10 is denoted as B)
- NRAS/KRAS (ratio of KD value with respect to NRAS to KD value with respect to KRAS) ([2]; KD ratio, SPR): B (a compound having 3 or more and less than 10 is denoted as B)
